This passage reports IC50 results from patent publication US12344597B2, “Alkoxy-substituted pyridinyl derivatives as LPA1 receptor antagonists and their use in the treatment of fibrosis” (IDORSIA PHARMACEUTICALS LTD, priority 2018, dated 2025).

For orientation: IC50 means the concentration needed to halve the response being measured.

human LPA1 receptor, sequence (Q92633 whole entry, the tested form may be a part): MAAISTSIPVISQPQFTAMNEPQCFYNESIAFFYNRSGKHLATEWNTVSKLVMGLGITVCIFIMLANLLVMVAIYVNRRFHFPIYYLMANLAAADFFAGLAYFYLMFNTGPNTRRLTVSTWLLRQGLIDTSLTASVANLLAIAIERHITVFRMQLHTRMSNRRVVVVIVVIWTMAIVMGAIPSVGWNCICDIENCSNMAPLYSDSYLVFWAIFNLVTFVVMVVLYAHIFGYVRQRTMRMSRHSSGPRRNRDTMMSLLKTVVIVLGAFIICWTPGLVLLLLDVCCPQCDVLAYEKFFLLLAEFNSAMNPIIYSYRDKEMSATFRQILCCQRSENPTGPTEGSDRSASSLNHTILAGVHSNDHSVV

The assay addresses human LPA1 receptor (Homo sapiens (Human), UniProt Q92633). The assay is described as follows: Beta-arrestin recruitment assay to determine IC50 values for human LPAR1. The format is cell-based. Particulars: antagonist mode, Tango EDG2-bla U2OS cells, LPA 18:1 500 nM final. The essentials:
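Tango EDG2-bla U2OS cells: LPA-driven beta-arrestin/TEV protease recruitment releases Gal4-VP16, inducing beta-lactamase reporter read with live-cell substrate. Cells seeded 20 h at 37 °C beforehand. IC50 is antagonist concentration inhibiting 50% of maximal response.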
Background: Recruitment of arrestin is a read-out of receptor activation apart from second messengers.
`Cc1ccc(NC(=O)C2(c3ccccc3C(C)C)CN(C(=O)N[C@@H](C)C(=O)O)C2)c(OC(F)F)n1` [Ex 17-9, (3-((2-(difluoromethoxy)-6-methylpyridin-3-yl)carbamoyl)-3-(2-isopropylphenyl)azetidine-1-carbonyl)-L-alanine]: the concentration for half-maximal inhibition (IC50) came to 48 nM. The figure for `CCOC(=O)C1(NC(=O)N2CC(C(=O)Nc3ccc(C)nc3OC(F)F)(c3ccccc3C(C)C)C2)CC1` [Ex 17-10, ethyl 1-(3-((2-(difluoromethoxy)-6-methylpyridin-3-yl)carbamoyl)-3-(2-isopropylphenyl)azetidine-1-carboxamido)cyclopropane-1-carboxylate] is 13 nM.

In the case of `Cc1ccc(NC(=O)C2(c3ccccc3C(C)C)CN(C(=O)NC3(C(=O)O)CC3)C2)c(OC(F)F)n1` [Ex 17-11, 1-(3-((2-(difluoromethoxy)-6-methylpyridin-3-yl)carbamoyl)-3-(2-isopropylphenyl)azetidine-1-carboxamido)cyclopropane-1-carboxylic acid], the half-inhibitory concentration (IC50) was determined as 46 nM. With `CCOC(=O)C(C)(C)NC(=O)N1CC(C(=O)Nc2ccc(C)nc2OC(F)F)(c2ccccc2C(C)C)C1` [Ex 17-12, ethyl 2-(3-((2-(difluoromethoxy)-6-methylpyridin-3-yl)carbamoyl)-3-(2-isopropylphenyl)azetidine-1-carboxamido)-2-methylpropanoate] the figure was 11 nM. With `Cc1ccc(NC(=O)C2(c3ccccc3C(C)C)CN(C(=O)NC(C)(C)C(=O)O)C2)c(OC(F)F)n1` [Ex 17-13, 2-(3-((2-(difluoromethoxy)-6-methylpyridin-3-yl)carbamoyl)-3-(2-isopropylphenyl)azetidine-1-carboxamido)-2-methylpropanoic acid] the figure was 25 nM.

For `COC(=O)C1(CNC(=O)N2CC(C(=O)Nc3ccc(C)nc3OC(F)F)(c3ccccc3C(C)C)C2)CC1` [Ex 17-14, methyl 1-((3-((2-(difluoromethoxy)-6-methylpyridin-3-yl)carbamoyl)-3-(2-isopropylphenyl)azetidine-1-carboxamido)methyl)cyclopropane-1-carboxylate], the concentration for half-maximal inhibition (IC50) was found to be 7 nM. The figure for `Cc1ccc(NC(=O)C2(c3ccccc3C(C)C)CN(C(=O)NCC3(C(=O)O)CC3)C2)c(OC(F)F)n1` [Ex 17-15, 1-((3-((2-(difluoromethoxy)-6-methylpyridin-3-yl)carbamoyl)-3-(2-isopropylphenyl)azetidine-1-carboxamido)methyl)cyclopropane-1-carboxylic acid] is 16 nM. The figure for `COC(=O)C(C)(C)CNC(=O)N1CC(C(=O)Nc2ccc(C)nc2OC(F)F)(c2ccccc2C(C)C)C1` [Ex 17-16, methyl 3-(3-((2-(difluoromethoxy)-6-methylpyridin-3-yl)carbamoyl)-3-(2-isopropylphenyl)azetidine-1-carboxamido)-2,2-dimethylpropanoate] is 9 nM; for `Cc1ccc(NC(=O)C2(c3ccccc3C(C)C)CN(C(=O)NCC(C)(C)C(=O)O)C2)c(OC(F)F)n1` [Ex 17-17, 3-(3-((2-(difluoromethoxy)-6-methylpyridin-3-yl)carbamoyl)-3-(2-isopropylphenyl)azetidine-1-carboxamido)-2,2-dimethylpropanoic acid] it is 12 nM.

Turning to `COC(=O)C(C)(C)CCNC(=O)N1CC(C(=O)Nc2ccc(C)nc2OC(F)F)(c2ccccc2C(C)C)C1` [Ex 17-18, methyl 4-(3-((2-(difluoromethoxy)-6-methylpyridin-3-yl)carbamoyl)-3-(2-isopropylphenyl)azetidine-1-carboxamido)-2,2-dimethylbutanoate], the IC50 came out at 6 nM. `Cc1ccc(NC(=O)C2(c3ccccc3C(C)C)CN(C(=O)NCCC(C)(C)C(=O)O)C2)c(OC(F)F)n1` [Ex 17-19, 4-(3-((2-(difluoromethoxy)-6-methylpyridin-3-yl)carbamoyl)-3-(2-isopropylphenyl)azetidine-1-carboxamido)-2,2-dimethylbutanoic acid] returned an IC50 of 7 nM. The figure for `Cc1ccc(NC(=O)C2(c3ccccc3C(C)C)CCN(C(N)=O)CC2)c(OC(F)F)n1` [Ex 17-20, N4-(2-(difluoromethoxy)-6-methylpyridin-3-yl)-4-(2-isopropylphenyl)piperidine-1,4-dicarboxamide] is 11 nM; for `C=C(C)C(=O)OCCNC(=O)N1CCC(C(=O)Nc2ccc(C)nc2OC(F)F)(c2ccccc2C(C)C)CC1` [Ex 17-21, 2-(4-((2-(difluoromethoxy)-6-methylpyridin-3-yl)carbamoyl)-4-(2-isopropylphenyl)piperidine-1-carboxamido)ethyl methacrylate] it is 5 nM; for `Cc1ccc(NC(=O)C2(c3ccccc3C(C)C)CCN(C(=O)NCCO)CC2)c(OC(F)F)n1` [Ex 17-22, N4-(2-(difluoromethoxy)-6-methylpyridin-3-yl)-N1-(2-hydroxyethyl)-4-(2-isopropylphenyl)piperidine-1,4-dicarboxamide] it is 9 nM. The compound `COC(=O)[C@@H](C)NC(=O)N1CC(C(=O)Nc2ccc(C)nc2OC(F)F)(c2ccccc2C(C)C)C1` [Ex 17-23, methyl (3-((2-(difluoromethoxy)-6-methylpyridin-3-yl)carbamoyl)-3-(2-isopropylphenyl)azetidine-1-carbonyl)-D-alaninate] returned a half-maximal inhibitory concentration (IC50) of 5 nM. With `Cc1ccc(NC(=O)C2(c3ccccc3C(C)C)CN(C(=O)N[C@H](C)C(=O)O)C2)c(OC(F)F)n1` [Ex 17-24, (3-((2-(difluoromethoxy)-6-methylpyridin-3-yl)carbamoyl)-3-(2-isopropylphenyl)azetidine-1-carbonyl)-D-alanine] the figure was 86 nM; with `Cc1ccc(NC(=O)C2(c3ccccc3C(C)C)CN(C(=O)N3CCNCC3)C2)c(OC(F)F)n1` [Ex 17-25, N-(2-(difluoromethoxy)-6-methylpyridin-3-yl)-3-(2-isopropylphenyl)-1-(piperazine-1-carbonyl)azetidine-3-carboxamide], 270 nM.

Consider `Cc1ccc(NC(=O)C2(c3ccccc3C(C)C)CN(C(=O)N3CCN(C)CC3)C2)c(OC(F)F)n1` [Ex 17-26, N-(2-(difluoromethoxy)-6-methylpyridin-3-yl)-3-(2-isopropylphenyl)-1-(4-methylpiperazine-1-carbonyl)azetidine-3-carboxamide], for which the IC50 is 240 nM.

In turn, `Cc1ccc(NC(=O)C2(c3ccccc3C(C)C)CN(C(=O)N3CCOCC3)C2)c(OC(F)F)n1` [Ex 17-27, N-(2-(difluoromethoxy)-6-methylpyridin-3-yl)-3-(2-isopropylphenyl)-1-(morpholine-4-carbonyl)azetidine-3-carboxamide] came in with an IC50 of 210 nM. The compound `COC(=O)c1ccc(N2CC(C(=O)Nc3ccc(C)nc3OC(F)F)(c3ccccc3C(C)C)C2)nc1` [Ex 18-1, Methyl 6-(3-((2-(difluoromethoxy)-6-methylpyridin-3-yl)carbamoyl)-3-(2-isopropylphenyl)azetidin-1-yl)nicotinate] showed an IC50 of 16 nM. The figure for `Cc1ccc(NC(=O)C2(c3ccccc3C(C)C)CN(c3ccc(C(=O)O)cn3)C2)c(OC(F)F)n1` [Ex 18-2, 6-(3-((2-(difluoromethoxy)-6-methylpyridin-3-yl)carbamoyl)-3-(2-isopropylphenyl)azetidin-1-yl)nicotinic acid] is 6 nM; for `Cc1ccc(NC(=O)C2(c3ccccc3C(C)C)CN(c3cccc(C(=O)O)n3)C2)c(OC(F)F)n1` [Ex 18-3, 6-(3-((2-(difluoromethoxy)-6-methylpyridin-3-yl)carbamoyl)-3-(2-isopropylphenyl)azetidin-1-yl)picolinic acid] it is 7 nM. With `COC(=O)c1cnc(N2CC(C(=O)Nc3ccc(C)nc3OC(F)F)(c3ccccc3C(C)C)C2)nc1` [Ex 18-4, methyl 2-(3-((2-(difluoromethoxy)-6-methylpyridin-3-yl)carbamoyl)-3-(2-isopropylphenyl)azetidin-1-yl)pyrimidine-5-carboxylate] the figure was 31 nM; with `Cc1ccc(NC(=O)C2(c3ccccc3C(C)C)CN(c3ncc(C(=O)O)cn3)C2)c(OC(F)F)n1` [Ex 18-5, 2-(3-((2-(difluoromethoxy)-6-methylpyridin-3-yl)carbamoyl)-3-(2-isopropylphenyl)azetidin-1-yl)pyrimidine-5-carboxylic acid], 11 nM. `COC(=O)c1ccc(N2CC(C(=O)Nc3ccc(C)nc3OC(F)F)(c3ccccc3C(C)C)C2)nn1` [Ex 18-6, methyl 6-(3-((2-(difluoromethoxy)-6-methylpyridin-3-yl)carbamoyl)-3-(2-isopropylphenyl)azetidin-1-yl)pyridazine-3-carboxylate]: the IC50 was 10 nM. `Cc1ccc(NC(=O)C2(c3ccccc3C(C)C)CN(c3ccc(C(=O)O)nn3)C2)c(OC(F)F)n1` [Ex 18-7, 6-(3-((2-(difluoromethoxy)-6-methylpyridin-3-yl)carbamoyl)-3-(2-isopropylphenyl)azetidin-1-yl)pyridazine-3-carboxylic acid] yielded an IC50 of 12 nM. The figure for `COC(=O)c1cnc(N2CC(C(=O)Nc3ccc(C)nc3OC(F)F)(c3ccccc3C(C)C)C2)cn1` [Ex 18-8, methyl 5-(3-((2-(difluoromethoxy)-6-methylpyridin-3-yl)carbamoyl)-3-(2-isopropylphenyl)azetidin-1-yl)pyrazine-2-carboxylate] is 10 nM; for `Cc1ccc(NC(=O)C2(c3ccccc3C(C)C)CN(c3cnc(C(=O)O)cn3)C2)c(OC(F)F)n1` [Ex 18-9, 5-(3-((2-(difluoromethoxy)-6-methylpyridin-3-yl)carbamoyl)-3-(2-isopropylphenyl)azetidin-1-yl)pyrazine-2-carboxylic acid] it is 11 nM; for `CCOC(=O)c1nccc(N2CC(C(=O)Nc3ccc(C)nc3OC(F)F)(c3ccccc3C(C)C)C2)n1` [Ex 18-10, ethyl 4-(3-((2-(difluoromethoxy)-6-methylpyridin-3-yl)carbamoyl)-3-(2-isopropylphenyl)azetidin-1-yl)pyrimidine-2-carboxylate] it is 120 nM.
